Measured values reported in patent publication US5618795A, “Dibekacin derivatives and arbekacin derivatives active against resistant bacteria, and the production thereof” (Zaidan Hojin Biseibutsu Kagaku Kenkyu Kai, priority 1992, dated 1997).
In brackets after ≈: the same amount, converted by molar mass. Like-named read-outs stand apart in the source and are kept apart here.

Columns and labels:
[1] = P. J. L. Daniels et al.; cited from earlier work
[2] = system: clinically isolated strains of MRSA; assay: Antibacterial MIC spectra against 50 clinically isolated strains of MRSA; assay type: cell-based, methicillin-resistant Staphylococcus aureus; conditions: Staphylococcus aureus; for MIC90: 90% of the 50 MRSA strains inhibited, read-out: MIC90; for MIC: range over 50 clinically isolated strains of MRSA, read-out: Antibacterial MIC spectra
Method: (§1) Minimum growth inhibitory concentrations (MIC) of each of 2"-amino-2"-deoxyarbekacin (Compound Ia), 2"-amino-5,2"-dideoxyarbekacin (Compound Ib), 2"-amino-2"-deoxydibekacin (Compound IIa) and 2"-amino-5,2"-dideoxydibekacin (Compound IIb) against various bacteria (20 strains) and against clinically isolated strains of MRSA (50 strains) were determined by standard serial dilution method on Muller-Hinton's agar medium (as estimated after cultivating at 27° C. for 18 hours), and the test results obtained are shown in TABLE 3 and TABLE 4, respectively.
Note:- MIC50 or MIC90 represents the concentration of tested
active compound at which 50% or 90% of the total numbers of the bacterial
strains tested were inhibited from their growth. DKB denotes dibekacin,
(§2) Minimum growth inhibitory concentrations (MIC) of each of 2"-amino-5,2"-dideoxy-5-epi-fluoroarbekacin (Compound XVIa) and 2"-amino-5,2"-dideoxy-5-epi-aminoarbekacin (Compound XVIb) against various bacteria (18 strains) and against clinically isolated strains of MRSA (50 strains) were determined by standard serial dilution method on Muller-Hinton's agar medium (as estimated after cultivation at 27° C. for 18 hours), and the test results obtained are shown in TABLE 5 and TABLE 6, respectively.

Salmonella typhi T-63 = assay: MIC by standard serial dilution method on Muller-Hinton's agar; assay type: cell-based; conditions: Salmonella enterica, Table 3, 27° C., 18 hours
Method: as §1, §2

[3] = system: Klebsiella pneumoniae PCI602; assay: as above; assay type: cell-based; conditions: PCI602, 18 h
Method: as §1, §2

S. aureus Smith = assay: as above; assay type: cell-based; conditions: Staphylococcus aureus; Table 3; 27° C., 18 hours
Method: as §1, §2

[4] = system: Shigella dysenteriae JSI1910; assay: as above; assay type: cell-based; conditions: JSI1910, 18 h
Method: as §1, §2

[5] = system: Providencia rettgeri GN311; assay: as above; assay type: cell-based
Method: as §1, §2

E. coli K-12 ML1629 = assay: as above; assay type: cell-based; conditions: Escherichia coli, K12ML1629; Table 3; 27° C., 18 hours; read-out: MIC
Method: as §1, §2

[6] = system: Staphylococcus aureus FDA209P; assay: as above; assay type: cell-based; conditions: Table 3, 27° C., 18 hours
Method: as §1, §2

S. epidermidis 109 = assay: as above; assay type: cell-based
Method: as §1, §2

E. coli K-12 LA290 R55 = assay: as above; assay type: cell-based; conditions: Escherichia coli, K12LA290R55, 18 h
Method: as §1, §2

E. coli JR66/W677 = assay: as above; assay type: cell-based; conditions: Escherichia coli, JR66/W677, 18 h
Method: as §1, §2

Proteus vulgaris OX19 = assay: as above; assay type: cell-based
Method: as §1, §2

Serratia marcescens = assay: as above; assay type: cell-based; conditions: Table 3, 27° C., 18 hours, read-out: MIC
Method: as §1, §2

P. aeruginosa PST1 = assay: as above; assay type: cell-based; conditions: Pseudomonas aeruginosa, Table 3, 27° C., 18 hours
Method: as §1, §2

Escherichia coli NIHJ = assay: as above; assay type: cell-based; conditions: Table 3, 27° C., 18 hours
Method: as §1, §2

Bacillus subtilis PCI219 = assay: as above; assay type: cell-based; conditions: Table 3, 27° C., 18 hours
Method: as §1, §2

P. aeruginosa TI-13 = assay: as above; assay type: cell-based; conditions: Pseudomonas aeruginosa, TI13, 18 h
Method: as §1, §2

P. aeruginosa H9 = assay: as above; assay type: cell-based; conditions: Pseudomonas aeruginosa, H9; Table 3; 27° C., 18 hours; read-out: MIC
Method: as §1, §2

[7] = system: Pseudomonas aeruginosa A3; assay: as above; assay type: cell-based
Method: as §1, §2

B. cereus ATCC10702 = assay: as above; assay type: cell-based; conditions: Bacillus cereus
Method: as §1

E. coli K-12 ML1410 = assay: as above; assay type: cell-based; conditions: Escherichia coli, K12ML1410; Table 3; 27° C., 18 hours
Method: as §1

[8] = Acute toxicity, single intravenous administration to mice; assay type: in vivo; conditions: mouse, in vivo; single intravenous administration; mice (ICR-strain, 4 weeks old, female); observations for two weeks; read-out: LD50
Description: 50% Lethal dosages (LD50, observations for two weeks) of the new compounds of this invention as estimated upon single intravenous administration to mice (ICR-strain, 4 weeks old, female) are as follows:
50% Lethal dosages (LD50, observations for two weeks) of the new compounds of general formula (XVI) according to the seventh aspect of this invention as estimated upon single intravenous administration to mice (ICR-strain, 4 weeks old, female) are as follows: […]

Solubility in water = assay type: physicochemical

Structure (SMILES) | antibacterial activity (in words) [1] | MIC90 ([2]; 27° C., 18 hours) [µg/mL] | MIC ([2]; 27° C., 18 hours) [µg/mL] | MIC (Salmonella typhi T-63) [µg/mL] | MIC [3] [µg/mL] | MIC (S. aureus Smith) [µg/mL] | MIC [4] [µg/mL] | MIC (E. coli K-12 ML1629) [µg/mL] | MIC [6] [µg/mL] | MIC (E. coli K-12 LA290 R55) [µg/mL] | MIC (E. coli JR66/W677) [µg/mL] | MIC (Serratia marcescens) [µg/mL] | MIC (P. aeruginosa PST1) [µg/mL] | MIC (Escherichia coli NIHJ) [µg/mL] | MIC (Bacillus subtilis PCI219) [µg/mL] | MIC (P. aeruginosa TI-13) [µg/mL] | MIC (P. aeruginosa H9) [µg/mL] | MIC (E. coli K-12 ML1410) [µg/mL] | LD50 at 336 h [8] [mg/kg] | Solubility (Solubility in water) | other results
CN[C@@H]1[C@@H](O)[C@@H](O[C@@H]2[C@H](N)[C@H](O[C@H]3OC(CN)=CC[C@H]3N)[C@@H](N)C[C@H]2N)OC[C@]1(C)O [5-epi-amino-5-deoxysisomicin] | good antibacterial activity |  |  |  |  |  |  |  |  |  |  |  |  |  |  |  |  |  |  |  | 
CN[C@@H]1[C@@H](O)[C@@H](O[C@@H]2[C@H](F)[C@H](O[C@H]3OC(CN)=CC[C@H]3N)[C@@H](N)C[C@H]2N)OC[C@]1(C)O [5-epi-fluoro-5-deoxysisomicin] | good antibacterial activity |  |  |  |  |  |  |  |  |  |  |  |  |  |  |  |  |  |  |  | 
NC[C@@H]1CC[C@@H](N)[C@@H](O[C@H]2[C@H](O)[C@@H](O[C@H]3O[C@H](CO)[C@@H](O)[C@H](N)[C@H]3N)[C@H](N)C[C@@H]2N)O1 [Compound IIa, 2"-Amino-2"-deoxydibekacin] |  | 25 (≈ 55.5 µM) | 0.2 to 50 (≈ 0.444 to 111 µM) | 1.56 (≈ 3.46 µM) | 3.13 (≈ 6.95 µM) | 0.39 (≈ 0.866 µM) | 3.13 (≈ 6.95 µM) | 3.13 (≈ 6.95 µM) | 0.78 (≈ 1.73 µM) | 1.56 (≈ 3.46 µM) | 3.13 (≈ 6.95 µM) | 12.5 (≈ 27.7 µM) | 50 (≈ 111 µM) | 0.78 (≈ 1.73 µM) | ≤ 0.2 | 3.13 (≈ 6.95 µM) | 6.25 (≈ 13.9 µM) | 1.56 (≈ 3.46 µM) | > 100 | easily soluble in water | MIC50 ([2]; 50% of the 50 MRSA strains inhibited, 27° C., 18 hours, read-out: MIC50): 6.25 µg/mL (≈ 13.9 µM); MIC ([5]; GN311, 18 h): 1.56 µg/mL (≈ 3.46 µM); MIC (S. epidermidis 109; Staphylococcus epidermidis, 109, 18 h): 1.56 µg/mL (≈ 3.46 µM); MIC (Proteus vulgaris OX19; OX19, 18 h): 1.56 µg/mL (≈ 3.46 µM); MIC ([7]; A3, 18 h): 1.56 µg/mL (≈ 3.46 µM); MIC (B. cereus ATCC10702; ATCC10702, 18 h): 3.13 µg/mL (≈ 6.95 µM)
NC[C@@H]1CC[C@@H](N)[C@@H](O[C@H]2C[C@@H](O[C@H]3O[C@H](CO)[C@@H](O)[C@H](N)[C@H]3N)[C@H](N)C[C@@H]2N)O1 [Compound IIb, 2"-Amino-5,2"-dideoxydibekacin] |  | 25 (≈ 57.5 µM) | 0.78 to 25 (≈ 1.8 to 57.5 µM) | 3.13 (≈ 7.2 µM) | 3.13 (≈ 7.2 µM) | ≤ 0.2 | 6.25 (≈ 14.4 µM) | 6.25 (≈ 14.4 µM) | 0.39 (≈ 0.898 µM) | 3.13 (≈ 7.2 µM) | 6.25 (≈ 14.4 µM) | 25 (≈ 57.5 µM) | 100 (≈ 230 µM) | 1.56 (≈ 3.59 µM) | ≤ 0.2 | 3.13 (≈ 7.2 µM) | 12.5 (≈ 28.8 µM) | 3.13 (≈ 7.2 µM) | 50 to 100 | easily soluble in water | MIC50 ([2]; MRSA, 18 h): 3.13 µg/mL (≈ 7.2 µM); MIC ([5]; GN311, Table 3, 27° C., 18 hours, read-out: MIC): 1.56 µg/mL (≈ 3.59 µM); MIC (S. epidermidis 109; Staphylococcus epidermidis, 109, Table 3, 27° C., 18 hours, read-out: MIC): 0.78 µg/mL (≈ 1.8 µM); MIC (Proteus vulgaris OX19; OX19, Table 3, 27° C., 18 hours, read-out: MIC): 1.56 µg/mL (≈ 3.59 µM); MIC ([7]; A3, Table 3, 27° C., 18 hours, read-out: MIC): 0.78 µg/mL (≈ 1.8 µM); MIC (B. cereus ATCC10702; ATCC10702, Table 3, 27° C., 18 hours, read-out: MIC): 1.56 µg/mL (≈ 3.59 µM)
